# In patent publication US20260285850A1, “SUBSTITUTED OXAZOLIDINONES AND IMIDAZOLINONES AS HERBICIDES” (FMC CORPORATION, priority 2023, published 2026):
# Columns and labels:
# Assay type in all cases: in vivo
# rice (Oryza sativa) = assay: Test B flooded paddy test, visual plant response rating 0-100; details: 250 g ai/ha, Flood, applied to paddy water, evaluated after 13 days
# How it was run: (§1)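 Plants were grown to the 2-leaf stage, then pots were flooded to 3 cm above the soil and compound was applied directly to the paddy water, with that depth kept throughout.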
# [1] = system: sedge, umbrella (small-flower umbrella sedge, Cyperus difformis); assay: as above; details: 250 g ai/ha, Flood, applied to paddy water, evaluated after 13 days
# How it was run: as §1
# [2] = system: ducksalad (Heteranthera limosa); assay: as above; details: 250 g ai/ha, Flood, applied to paddy water, evaluated after 13 days
# How it was run: as §1
# [3] = system: barnyardgrass (Echinochloa crusgalli); assay: as above; details: 250 g ai/ha, Flood, applied to paddy water, evaluated after 13 days
# How it was run: as §1
# [4] = system: horseweed (Erigeron canadensis); assay: Test A postemergence application, visual injury rating 0-100; details: 10 days
# How it was run: (§2)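 Visual injury, scored 0-100 (100 = complete control) against untreated plants, 10 days after greenhouse treatment. Test chemicals in surfactant-containing non-phytotoxic solvent were applied in loam soil and sand, as a preemergence soil spray on seeds or postemergence to plants at the one- to two-leaf stage.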
# [5] = system: blackgrass (Alopecurus myosuroides); assay: as above; details: 10 days
# How it was run: as §2
# [6] = system: barnyardgrass (Echinochloa crus-galli); assay: as above; details: 10 days
# How it was run: as §2
# [7] = system: oat, wild (wild oat, Avena fatua); assay: as above; details: 10 days
# How it was run: as §2
# [8] = system: palmer (palmer amaranth, palmer pigweed, Amaranthus palmeri); assay: as above; details: 10 days
# How it was run: as §2
# [9] = system: ragweed (common ragweed, Ambrosia artemisiifolia); assay: as above; details: 10 days
# How it was run: as §2
# [10] = system: wheat (Triticum aestivum); assay: as above; details: 10 days
# How it was run: as §2
# [11] = system: green foxtail (Setaria viridis); assay: as above; details: 10 days
# How it was run: as §2
# soybean (Glycine max) [12] = assay: as above; details: 10 days
# How it was run: as §2
# [13] = system: ryegrass, Italian (italian ryegrass, Lolium multiflorum); assay: as above; details: 10 days
# How it was run: as §2
# corn (Zea mays) [14] = assay: as above; details: 10 days
# How it was run: as §2
# kochia (Bassia scoparia) [15] = assay: as above; details: 10 days
# How it was run: as §2
# [16] = system: blackgrass (Alopecurus myosuroides); assay: Test A preemergence soil spray, visual injury rating 0-100; details: 10 days, 0 = no effect, 100 = complete control
# How it was run: as §2
# [17] = system: barnyardgrass (Echinochloa crus-galli); assay: as above; details: 10 days, 0 = no effect, 100 = complete control
# How it was run: as §2
# [18] = system: oat, wild (wild oat, Avena fatua); assay: as above; details: 10 days, 0 = no effect, 100 = complete control
# How it was run: as §2
# [19] = system: palmer (palmer amaranth, palmer pigweed, Amaranthus palmeri); assay: as above; details: 10 days, 0 = no effect, 100 = complete control
# How it was run: as §2
# [20] = system: ragweed (common ragweed, Ambrosia artemisiifolia); assay: as above; details: 10 days, 0 = no effect, 100 = complete control
# How it was run: as §2
# [21] = system: wheat (Triticum aestivum); assay: as above; details: 10 days, 0 = no effect, 100 = complete control
# How it was run: as §2
# [22] = system: green foxtail (Setaria viridis); assay: as above; details: 10 days, 0 = no effect, 100 = complete control
# How it was run: as §2
# soybean (Glycine max) [23] = assay: as above; details: 10 days, 0 = no effect, 100 = complete control
# How it was run: as §2
# [24] = system: ryegrass, Italian (italian ryegrass, Lolium multiflorum); assay: as above; details: 10 days, 0 = no effect, 100 = complete control
# How it was run: as §2
# corn (Zea mays) [25] = assay: as above; details: 10 days, 0 = no effect, 100 = complete control
# How it was run: as §2
# kochia (Bassia scoparia) [26] = assay: as above; details: 10 days, 0 = no effect, 100 = complete control
# How it was run: as §2
# [27] = 31 g ai/ha, postemergence, 0 = no effect, 100 = complete control
# [28] = Postemergence, 125 g ai/ha, 0 is no effect, 100 is complete control
smiles,measurement,setting,value
CONC(=O)C1CC(NC(=O)C2(C)CN(c3cc(F)cc(F)c3)C(=O)O2)CO1 (centres unmarked) [Compound 39],"Plant response rating, Rice (0 to 100 scale, 0 is no effect and 100 is complete control)",rice (Oryza sativa),0
same,"Plant response rating, Sedge, Umbrella (0 to 100 scale, 0 is no effect and 100 is complete control)",[1],0
same,"Plant response rating, Ducksalad (0 to 100 scale, 0 is no effect and 100 is complete control)",[2],0
same,"Plant response rating, Barnyardgrass (0 to 100 scale, 0 is no effect and 100 is complete control)",[3],0
same,Horseweed plant response rating (0-100),[4]; [27],10
same,Horseweed plant response rating (0 to 100 scale),[4]; [28],0
same,Blackgrass plant response rating (0-100),[5]; [27],90
same,Blackgrass plant response rating (0 to 100 scale),[5]; [28],100
same,Barnyardgrass plant response rating (0-100),[6]; [27],10
same,Barnyardgrass plant response rating (0 to 100 scale),[6]; [28],90
same,"Oat, Wild plant response rating (0-100)",[7]; [27],90
same,"Oat, Wild plant response rating (0 to 100 scale)",[7]; [28],90
same,"Amaranth, Palmer plant response rating (0-100)",[8]; [27],0
same,"Amaranth, Palmer / Pigweed, Palmer plant response rating (0 to 100 scale)",[8]; [28],20
same,Ragweed plant response rating (0-100),[9]; [27],0
same,Ragweed plant response rating (0 to 100 scale),[9]; [28],20
same,Wheat plant response rating (0-100),[10]; [27],90
same,Wheat plant response rating (0 to 100 scale),[10]; [28],90
same,"Foxtail, Green plant response rating (0-100)",[11]; [27],20
same,"Foxtail, Green plant response rating (0 to 100 scale)",[11]; [28],90
same,Soybean plant response rating (0-100),soybean (Glycine max) [12]; [27],20
same,Soybean plant response rating (0 to 100 scale),soybean (Glycine max) [12]; [28],60
same,"Ryegrass, Italian plant response rating (0-100)",[13]; [27],30
same,"Ryegrass, Italian plant response rating (0 to 100 scale)",[13]; [28],80
same,Corn plant response rating (0-100),corn (Zea mays) [14]; [27],0
same,Corn plant response rating (0 to 100 scale),corn (Zea mays) [14]; [28],100
same,Kochia plant response rating (0-100),kochia (Bassia scoparia) [15]; [27],20
same,Kochia plant response rating (0 to 100 scale),kochia (Bassia scoparia) [15]; [28],50
same,Blackgrass plant response rating (0-100),[16]; 31 g ai/ha,0
same,Blackgrass plant response rating (0 to 100 scale),[16]; 125 g ai/ha,60
same,Barnyardgrass plant response rating (0-100),[17]; 31 g ai/ha,0
same,Barnyardgrass plant response rating (0 to 100 scale),[17]; 125 g ai/ha,20
same,"Oat, Wild plant response rating (0-100)",[18]; 31 g ai/ha,0
same,"Oat, Wild plant response rating (0 to 100 scale)",[18]; 125 g ai/ha,90
same,"Amaranth, Palmer plant response rating (0-100)",[19]; 31 g ai/ha,0
same,"Amaranth, Palmer plant response rating (0 to 100 scale)",[19]; 125 g ai/ha,0
same,Ragweed plant response rating (0-100),[20]; 31 g ai/ha,0
same,Ragweed plant response rating (0 to 100 scale),[20]; 125 g ai/ha,0
same,Wheat plant response rating (0-100),[21]; 31 g ai/ha,0
same,Wheat plant response rating (0 to 100 scale),[21]; 125 g ai/ha,90
same,"Foxtail, Green plant response rating (0-100)",[22]; 31 g ai/ha,0
same,"Foxtail, Green plant response rating (0 to 100 scale)",[22]; 125 g ai/ha,0
same,Soybean plant response rating (0-100),soybean (Glycine max) [23]; 31 g ai/ha,0
same,Soybean plant response rating (0 to 100 scale),soybean (Glycine max) [23]; 125 g ai/ha,10
same,"Ryegrass, Italian plant response rating (0-100)",[24]; 31 g ai/ha,0
same,"Ryegrass, Italian plant response rating (0 to 100 scale)",[24]; 125 g ai/ha,40
same,Corn plant response rating (0-100),corn (Zea mays) [25]; 31 g ai/ha,0
same,Corn plant response rating (0 to 100 scale),corn (Zea mays) [25]; 125 g ai/ha,0
same,Kochia plant response rating (0-100),kochia (Bassia scoparia) [26]; 31 g ai/ha,0
same,Kochia plant response rating (0 to 100 scale),kochia (Bassia scoparia) [26]; 125 g ai/ha,20
